Several values for one entry are separate records, joined by “and”; a condition that tells them apart may be missing. Identical values can stand only once.
Columns and labels:
[1] = molar heat capacity at constant pressure; conditions: 101.33 kPa, Small sample (50 mg) DSC
[2] = for vapor or sublimation pressure: Calculated from knudsen effusion weight loss; for Triple point temperature: DTA
[3] = Molar enthalpy of transition or fusion; conditions: DSC

O=C1NCCN1 [2-imidazolidinone]
Conditions	molar heat capacity at constant pressure [J/K/mol]	vapor or sublimation pressure
[1], 268.15 K, Crystal 2	99.4	–
[1], 270.15 K, Crystal 2	100	–
[1], 275.15 K, Crystal 2	101.5	–
[1], 280.15 K, Crystal 2	102.7	–
[1], 285.15 K, Crystal 2	103.9	–
[1], 290.15 K, Crystal 2	105.1	–
[1], 295.15 K, Crystal 2	106.3	–
[1], 298.15 K, Crystal 2	107.7	–
[1], 300.15 K, Crystal 2	108.5	–
[1], 305.15 K, Crystal 2	110.2	–
[1], 310.15 K, Crystal 2	111.9	–
[1], 315.15 K, Crystal 2	113.2	–
[1], 320.15 K, Crystal 2	115.4	–
[1], 325.15 K, Crystal 2	117.3	–
[1], 330.15 K, Crystal 2	119	–
[1], 335.15 K, Crystal 2	120.9	–
[1], 338.15 K, Crystal 2	122.1	–
[2], 327.2 K, Crystal 2	–	0.0001064 kPa and 0.0001074 kPa and 0.0001035 kPa
[2], 329.21 K, Crystal 2	–	0.0001364 kPa and 0.0001328 kPa and 0.0001305 kPa
[2], 331.14 K, Crystal 2	–	0.0001664 kPa and 0.0001631 kPa and 0.0001658 kPa
[2], 333.19 K, Crystal 2	–	0.0002142 kPa and 0.0002049 kPa and 0.0002095 kPa
[2], 335.21 K, Crystal 2	–	0.0002681 kPa and 0.0002592 kPa and 0.0002535 kPa
[2], 337.15 K, Crystal 2	–	0.0003214 kPa and 0.000301 kPa and 0.00032 kPa
[2], 339.2 K, Crystal 2	–	0.0003984 kPa and 0.0003883 kPa
[2], 341.21 K, Crystal 2	–	0.000457 kPa and 0.0004831 kPa and 0.0004721 kPa
[2], 343.14 K, Crystal 2	–	0.0005644 kPa and 0.0005525 kPa and 0.0005387 kPa
[2], 345.19 K, Crystal 2	–	0.0006621 kPa and 0.0006672 kPa and 0.0006399 kPa
[2], 347.2 K, Crystal 1	–	0.0007833 kPa and 0.0008114 kPa and 0.0007693 kPa
[2], 349.16 K, Crystal 1	–	0.0009806 kPa and 0.0009769 kPa and 0.0009472 kPa

Conditions	Molar enthalpy of transition or fusion, [3] [kcal/mol]	Triple point temperature, [2] [K]
Crystal 1	3.15	404.8
Crystal 2	0.908	346.6

O=C1NCCCN1 [tetrahydropyrimidin-2(1H)-one]
Crystal
Conditions	molar heat capacity at constant pressure [J/K/mol]	vapor or sublimation pressure
[1], 268.15 K	117.2	–
[1], 270.15 K	118	–
[1], 275.15 K	120.1	–
[1], 280.15 K	122.2	–
[1], 285.15 K	124.1	–
[1], 290.15 K	126.2	–
[1], 295.15 K	128.1	–
[1], 298.15 K	129.5	–
[1], 300.15 K	130.4	–
[1], 305.15 K	132.7	–
[1], 310.15 K	135.3	–
[1], 315.15 K	137.8	–
[1], 320.15 K	140.2	–
[1], 325.15 K	142.6	–
[1], 330.15 K	145.1	–
[1], 335.15 K	147.3	–
[1], 340.15 K	150.1	–
[1], 345.15 K	152.2	–
[1], 350.15 K	155.1	–
[1], 355.15 K	157.2	–
[1], 360.15 K	159.9	–
[1], 365.15 K	163.8	–
[1], 370.15 K	166.5	–
[1], 375.15 K	169.8	–
[1], 380.15 K	172.4	–
[1], 385.15 K	175.1	–
[1], 390.15 K	177.3	–
[1], 395.15 K	180.4	–
[1], 400.15 K	183.3	–
[1], 405.15 K	186.5	–
[1], 410.15 K	189.8	–
[1], 415.15 K	193.9	–
[1], 420.15 K	197.1	–
[1], 425.15 K	200.8	–
[1], 430.15 K	202.7	–
[1], 435.15 K	204.9	–
[1], 440.15 K	207.5	–
[1], 445.15 K	210.3	–
[1], 450.15 K	213.3	–
[1], 455.15 K	215.9	–
[1], 460.15 K	219.1	–
[1], 465.15 K	222.2	–
[1], 470.15 K	224.9	–
[2], 363.19 K	–	0.0001292 kPa and 0.0001261 kPa and 0.0001216 kPa
[2], 365.18 K	–	0.0001581 kPa and 0.0001562 kPa and 0.0001488 kPa
[2], 367.14 K	–	0.0001903 kPa and 0.0001913 kPa and 0.0001858 kPa
[2], 369.19 K	–	0.0002232 kPa and 0.0002283 kPa
[2], 371.17 K	–	0.000271 kPa and 0.0002737 kPa and 0.0002643 kPa
[2], 373.15 K	–	0.0003343 kPa and 0.0003328 kPa
[2], 375.18 K	–	0.0003988 kPa and 0.000402 kPa
[2], 377.18 K	–	0.0004813 kPa and 0.0004804 kPa and 0.0004655 kPa
[2], 379.16 K	–	0.0005717 kPa and 0.0005887 kPa and 0.0005753 kPa
[2], 381.18 K	–	0.000719 kPa and 0.000702 kPa and 0.000673 kPa
[2], 383.18 K	–	0.0008587 kPa and 0.0008463 kPa
[2], 385.16 K	–	0.001027 kPa and 0.0009846 kPa
